Four compounds from US20070049588A1, “ATM INHIBITOR” (priority 2005, published 2007) can be followed below.

Read-outs that look alike come from different tables or passages of the source.

Data set [1] can be described thus: Clonogenic survival assays with chemotherapeutics. It counts as cell-based. As to conditions: in vitro clonogenic survival assays.
Another data set relates to HIV. Kind of data set: HIV-based LUCIA assay, repression of retroviral infection. It counts as cell-based. Particulars: Human immunodeficiency virus 1. As to the method: The ability of compound (Ia) to repress retroviral infections was assessed using an HIV-based LUCIA assay. The LUCIA assay was carried out as described in WO 03/070726 (see pages 125-126 therein), which is incorporated herein by reference.

The nature of data set [2]: Oral bioavailability in mice. The class given is in vivo. Particulars: mouse, plasma, 10 mg/kg oral vs intravenous, AUC ratio. As for the experimental part: In order to assess the oral bioavailability of compounds (Ia)-(IV), the compounds were dissolved to 5 mg/ml in an aqueous formulation which was then dosed orally and intravenously at 10 mg/kg to discrete groups of mice. For the intravenously dosed animals, blood samples were taken (three mice per time point) at 3, 5, 15, 30, 60, 120, 240 and 360 minutes post-dose. For the orally dosed animals, blood samples were taken (three mice per time point) at 5, 15, 30, 60, 120, 240 and 360 minutes post-dose. The plasma concentration of each compound at all time points, for both dose routes, was determined by HPLC-MS/MS analysis. The details of the HPLC-MS/MS method are as follows.
Sample was extracted for analysis by homogenisation of tissue, if required, vortex mixing and then centrifugation to produce a compound-containing supernatant that can be assayed by HPLC-MS/MS. Quantitation was achieved by comparison to a serial dilution of a known amount of parent compound. The chromatographic and MS conditions used are given below.
MS conditions were determined by infusing compound dissolved in 50:50 acetonitrile:formic acid (0.01%).
Total exposure as indicated by area under the curve (AUC) was calculated. By definition, intravenous delivery results in 100% bioavailability and the comparative bioavailability obtained through oral delivery is calculated by: [formula]

Data set [3] is described as follows: Tissue pharmacokinetics, plasma and tumour concentrations. It counts as in vivo. As to conditions: mouse, ip, mice, 50 mg/kg i.p., mean; for concentration at 1 h: 1 hr post-dose; for concentration at 4 h: 4 hr post-dose. As for the experimental part:
In order to assess tissue pharmacokinetics, a single intraperitoneal (i.p.) dose of 50 mg/kg of each compound was administered to discrete groups of mice. Blood and tumour samples were taken (three mice per time point) at 1 and 4 hours post-dose. The concentration of each compound in both matrices at both time points was determined by HPLC-MS/MS analysis using the method described above for Example 6. The mean concentrations found are presented below.

A short description of data set [4]: Maximum single tolerable intravenous dose in rats. Particulars: both sexes, rat, in vivo, highest dose without clinical signs in 4 animals, read-out: Rat MTD (i.v.). As to the method:
(§1) The maximum single tolerable intravenous dose which could be administered to rats and mice was determined. Escalating doses of each compound were given to discrete, naive pairs of animals (1 male and 1 female) until a dose that elicited clinical signs, was reached. Then for each compound, two further animals were then treated with the highest dose that had not produced any clinical signs. […]

Data set [5] is described as follows: Maximum single tolerable intravenous dose in mice. Particulars: both sexes, mouse, in vivo, highest dose without clinical signs in 4 animals, read-out: Mouse MTD (i.v.). As for the experimental part: as §1
The mark [6] stands for this setting: plasma, read-out: Plasma concentration.
Setting [7] is: tumour, read-out: Tumour concentration.

As usually defined, the IC50 is the concentration needed to halve the response being measured. The low end stands for greater potency in that assay, the high end for weaker potency in that assay. A word on the bioavailability: it is dose-corrected exposure relative to a reference, in per cent. A word on the MTD: it is the highest dose tested that stayed within the study's limit of toxicity. Regarding `C[C@@H]1CN(CC(=O)Nc2ccc3c(c2)Cc2cccc(-c4cc(=O)cc(N5CCOCC5)o4)c2S3)C[C@H](C)O1` [Compound (Ia), 2-((2R,6S)-2,6-Dimethyl-morpholin-4-yl)-N-[5-(6-morpholin-4-yl-4-oxo-4H-pyran-2-yl)-9H-thioxanthen-2-yl]-acetamide], the “Potentiation of cytotoxic effects of etoposide, camptothecin and doxorubicin” value in data set [1] is “potentiate the cytotoxic effects”. Further, the midpoint of inhibition with HIV, the IC50, lay at 1300 nM. The bioavailability in data set [2] worked out at 37%. Further, the concentration at 1 h turned out to be 31800 ng/mL in data set [3] (setting [6]) and 19700 ng/g in data set [3] (setting [7]). Besides, the values for the concentration at 4 h in data set [3] (setting [6]) and in data set [3] (setting [7]) were 5960 ng/mL and 4140 ng/g, respectively. In addition, the MTD in data set [4] is greater than 100 mg/kg; in data set [5], 75 mg/kg.

For the compound `CC(C)N1CCN(CCC(=O)Nc2ccc3c(c2)Sc2cccc(-c4cc(=O)cc(N5CCOCC5)o4)c2S3)CC1` [Compound (IV)], the bioavailability in data set [2] is 0%. For the same compound, in data set [3] (setting [6]), the concentration at 1 h came to 1920 ng/mL and the concentration at 4 h was 383 ng/mL. Also, in data set [3] (setting [7]), the concentration at 1 h was 899 ng/g and the concentration at 4 h worked out at 1090 ng/g. Besides, the MTD in data set [5] was less than 40 mg/kg.

For `CN1CCN(CCC(=O)Nc2ccc3c(c2)Cc2cccc(-c4cc(=O)cc(N5CCOCC5)o4)c2S3)CC1` [Compound (II)], in data set [2], the bioavailability worked out at 0%. The values for the concentration at 1 h in data set [3] (setting [6]) and in data set [3] (setting [7]) were 3030 ng/mL and 2810 ng/g, respectively. The concentration at 4 h was determined as 137 ng/mL in data set [3] (setting [6]) and 1060 ng/g in data set [3] (setting [7]). In addition, the MTD in data set [4] is 40 mg/kg; in data set [5] it was less than 40 mg/kg.

As to `CN1CCN(CCC(=O)Nc2ccc3c(c2)Sc2cccc(-c4cc(=O)cc(N5CCOCC5)o4)c2S3)CC1` [Compound (III)], in data set [2], the bioavailability was 0%. For the same compound, the concentration at 1 h in data set [3] (setting [6]) amounted to 2030 ng/mL; in data set [3] (setting [7]), 1730 ng/g. For the same compound, the concentration at 4 h in data set [3] (setting [6]) is 626 ng/mL; in data set [3] (setting [7]), 2190 ng/g. In addition, the MTD in data set [4] is 75 mg/kg; in data set [5] it was less than 40 mg/kg.
